The NIST ThermoML archive (doi:10.1016/j.jct.2008.09.014)
Values joined by “and” are separate entries in the source; they are usually repeats but may differ in a detail not shown here. Equal entries are not always repeated. Numbers after ± are expanded uncertainties.

Conditions: Crystal; for vapor or sublimation pressure: Calculated from knudsen effusion weight loss

O=[N+]([O-])c1ccc2[nH]ccc2c1 [5-nitroindole]
Conditions | vapor or sublimation pressure
353.15 K | 9.42e-05 ± 4.7e-06 kPa and 9.3e-05 ± 4.7e-06 kPa
355.2 K | 0.0001148 ± 5.8e-06 kPa and 0.0001117 ± 5.6e-06 kPa
357.18 K | 0.0001368 ± 6.9e-06 kPa and 0.0001345 ± 6.7e-06 kPa and 0.000131 ± 6.6e-06 kPa
359.15 K | 0.0001667 ± 8.4e-06 kPa and 0.0001723 ± 8.6e-06 kPa and 0.0001702 ± 8.5e-06 kPa
361.19 K | 0.0001997 ± 1e-05 kPa and 0.000201 ± 1e-05 kPa
363.17 K | 0.0002441 ± 1.2e-05 kPa and 0.0002364 ± 1.2e-05 kPa
365.16 K | 0.0003138 ± 1.6e-05 kPa and 0.0003041 ± 1.5e-05 kPa and 0.0002935 ± 1.5e-05 kPa
367.19 K | 0.0003798 ± 1.9e-05 kPa and 0.0003685 ± 1.8e-05 kPa and 0.0003544 ± 1.8e-05 kPa
369.17 K | 0.0004448 ± 2.2e-05 kPa and 0.000439 ± 2.2e-05 kPa and 0.0004322 ± 2.2e-05 kPa
371.17 K | 0.0005523 ± 2.8e-05 kPa and 0.0005458 ± 2.7e-05 kPa and 0.0005326 ± 2.7e-05 kPa
373.19 K | 0.0006817 ± 3.4e-05 kPa and 0.0006526 ± 3.3e-05 kPa and 0.0006311 ± 3.2e-05 kPa
375.17 K | 0.0008006 ± 4e-05 kPa and 0.0007692 ± 3.9e-05 kPa

O=[N+]([O-])c1ccc2c(c1)CCN2 [5-nitroindoline]
Conditions | mass density [kg/m3]
298.15 K, 101.33 kPa, mass and volume measurement | 1390 ± 20

Conditions | vapor or sublimation pressure
338.09 K | 6.24e-05 ± 3.1e-06 kPa and 6.06e-05 ± 3e-06 kPa and 6.3e-05 ± 3.2e-06 kPa
340.12 K | 7.74e-05 ± 3.9e-06 kPa and 7.36e-05 ± 3.7e-06 kPa and 7.65e-05 ± 3.8e-06 kPa
342.2 K | 0.000101 ± 5.1e-06 kPa and 9.69e-05 ± 4.9e-06 kPa and 9.36e-05 ± 4.7e-06 kPa
344.08 K | 0.0001236 ± 6.2e-06 kPa and 0.0001184 ± 5.9e-06 kPa and 0.0001211 ± 6.1e-06 kPa
346.1 K | 0.0001521 ± 7.6e-06 kPa and 0.0001453 ± 7.3e-06 kPa and 0.0001435 ± 7.2e-06 kPa
348.19 K | 0.0001876 ± 9.4e-06 kPa and 0.0001782 ± 8.9e-06 kPa and 0.0001803 ± 9e-06 kPa
350.1 K | 0.000241 ± 1.2e-05 kPa and 0.0002364 ± 1.2e-05 kPa and 0.0002307 ± 1.2e-05 kPa
352.13 K | 0.0002958 ± 1.5e-05 kPa and 0.0002905 ± 1.5e-05 kPa and 0.0002792 ± 1.4e-05 kPa
354.19 K | 0.0003738 ± 1.9e-05 kPa and 0.0003438 ± 1.7e-05 kPa and 0.0003465 ± 1.7e-05 kPa
356.1 K | 0.0004193 ± 2.1e-05 kPa and 0.0004189 ± 2.1e-05 kPa and 0.0004131 ± 2.1e-05 kPa
358.12 K | 0.0005196 ± 2.6e-05 kPa and 0.0005153 ± 2.6e-05 kPa and 0.0005004 ± 2.5e-05 kPa
360.18 K | 0.0006675 ± 3.3e-05 kPa and 0.0006261 ± 3.1e-05 kPa and 0.0006157 ± 3.1e-05 kPa
